In brackets after ≈: the same amount, converted by molar mass. Like-named read-outs stand apart in the source and are kept apart here.
Legend:
C. albicans = assay: Antifungal Activity Assay (broth microtiter MIC), C. albicans; type: cell-based, Candida albicans; conditions: Candida albicans, ATCC90028, 48 h
In short: (§1)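 Endpoint: lowest concentration visibly inhibiting growth relative to control after 48 h. Inoculum of 2.5×10^3 CFU/mL final in RPMI 1640+MOPS, prepared from overnight 35° C agar cultures; test compounds diluted in water to 128 μg/mL before plating.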

C. parapsilosis = assay: Antifungal Activity Assay (broth microtiter MIC), C. parapsilosis; type: cell-based, Candida parapsilosis; conditions: Lodderomyces parapsilosis, ATCC22019, 48 h
In short: as §1

C. krusei = assay: Antifungal Activity Assay (broth microtiter MIC), C. krusei; type: cell-based, Candida krusei; conditions: Pichia kudriavzevii, ATCC6258, 48 h
In short: as §1

fungal (fACC2) = fungal (fACC2) (UniProt Q00955); conditions: read-out: fACC2 (in vitro ACC2 Inhibition Assay, IC50), ADP-Glo, 5 nM ACC2, 20 μM ATP, 20 μM acetyl-CoA
Sequence of fungal (fACC2) (Q00955 whole entry): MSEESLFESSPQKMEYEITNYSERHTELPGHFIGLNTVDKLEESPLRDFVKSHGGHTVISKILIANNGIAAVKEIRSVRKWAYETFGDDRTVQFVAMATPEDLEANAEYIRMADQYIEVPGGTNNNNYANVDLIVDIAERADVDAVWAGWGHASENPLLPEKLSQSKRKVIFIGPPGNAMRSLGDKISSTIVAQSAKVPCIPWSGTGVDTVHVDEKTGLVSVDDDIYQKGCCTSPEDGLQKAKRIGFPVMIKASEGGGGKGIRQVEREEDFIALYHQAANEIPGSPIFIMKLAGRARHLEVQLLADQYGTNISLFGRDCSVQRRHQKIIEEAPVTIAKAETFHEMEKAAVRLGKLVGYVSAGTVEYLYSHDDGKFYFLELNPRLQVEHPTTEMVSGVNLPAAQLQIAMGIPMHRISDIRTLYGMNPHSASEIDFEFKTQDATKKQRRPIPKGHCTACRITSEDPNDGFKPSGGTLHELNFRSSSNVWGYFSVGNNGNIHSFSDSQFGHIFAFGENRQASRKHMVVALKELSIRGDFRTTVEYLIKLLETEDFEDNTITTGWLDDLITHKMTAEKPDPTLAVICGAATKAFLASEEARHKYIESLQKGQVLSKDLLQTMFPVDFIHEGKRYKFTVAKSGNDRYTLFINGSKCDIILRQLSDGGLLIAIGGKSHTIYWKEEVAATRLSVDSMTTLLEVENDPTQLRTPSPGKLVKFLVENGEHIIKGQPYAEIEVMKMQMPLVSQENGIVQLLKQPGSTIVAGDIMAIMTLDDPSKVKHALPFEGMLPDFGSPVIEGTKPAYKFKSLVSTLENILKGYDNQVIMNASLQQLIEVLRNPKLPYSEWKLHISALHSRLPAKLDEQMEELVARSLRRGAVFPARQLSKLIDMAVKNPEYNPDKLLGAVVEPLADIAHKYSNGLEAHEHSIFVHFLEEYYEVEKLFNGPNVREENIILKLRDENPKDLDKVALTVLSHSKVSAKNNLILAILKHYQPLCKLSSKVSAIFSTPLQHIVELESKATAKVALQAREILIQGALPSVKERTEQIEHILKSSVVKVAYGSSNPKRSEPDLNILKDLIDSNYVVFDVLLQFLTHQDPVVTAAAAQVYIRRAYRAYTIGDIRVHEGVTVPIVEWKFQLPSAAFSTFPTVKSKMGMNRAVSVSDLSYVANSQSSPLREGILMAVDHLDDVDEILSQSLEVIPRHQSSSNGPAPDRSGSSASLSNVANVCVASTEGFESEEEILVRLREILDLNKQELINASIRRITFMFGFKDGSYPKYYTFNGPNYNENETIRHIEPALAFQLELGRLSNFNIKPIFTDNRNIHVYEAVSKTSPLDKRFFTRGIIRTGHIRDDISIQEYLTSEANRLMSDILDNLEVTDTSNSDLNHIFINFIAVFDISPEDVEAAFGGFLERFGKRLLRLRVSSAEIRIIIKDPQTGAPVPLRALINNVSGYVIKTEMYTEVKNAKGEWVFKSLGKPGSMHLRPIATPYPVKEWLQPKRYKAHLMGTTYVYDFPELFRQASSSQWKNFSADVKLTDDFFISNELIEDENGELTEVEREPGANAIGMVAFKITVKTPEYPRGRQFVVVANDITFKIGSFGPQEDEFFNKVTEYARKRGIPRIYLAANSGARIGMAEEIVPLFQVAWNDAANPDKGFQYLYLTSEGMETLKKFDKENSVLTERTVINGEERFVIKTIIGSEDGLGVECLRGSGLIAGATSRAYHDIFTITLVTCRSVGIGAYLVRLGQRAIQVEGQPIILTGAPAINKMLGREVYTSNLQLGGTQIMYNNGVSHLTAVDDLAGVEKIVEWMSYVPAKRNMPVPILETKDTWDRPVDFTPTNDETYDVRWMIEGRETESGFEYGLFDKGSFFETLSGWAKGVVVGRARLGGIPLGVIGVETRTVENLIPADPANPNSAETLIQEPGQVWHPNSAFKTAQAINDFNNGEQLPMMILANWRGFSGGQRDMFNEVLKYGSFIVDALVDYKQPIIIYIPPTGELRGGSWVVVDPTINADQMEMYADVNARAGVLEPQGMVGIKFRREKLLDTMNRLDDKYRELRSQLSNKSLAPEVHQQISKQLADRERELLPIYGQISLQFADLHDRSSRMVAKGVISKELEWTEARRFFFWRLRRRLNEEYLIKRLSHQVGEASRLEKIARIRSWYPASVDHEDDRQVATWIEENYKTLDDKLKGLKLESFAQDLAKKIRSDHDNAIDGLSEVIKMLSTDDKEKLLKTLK

human (hACC2) = human (hACC2) (Homo sapiens, UniProt O00763); assay: In vitro ACC inhibition assay (ADP-Glo), hACC2; type: biochemical; conditions: 5 nM ACC2, 20 μM ATP, 20 μM acetyl-CoA
Sequence of human (hACC2) (O00763 whole entry): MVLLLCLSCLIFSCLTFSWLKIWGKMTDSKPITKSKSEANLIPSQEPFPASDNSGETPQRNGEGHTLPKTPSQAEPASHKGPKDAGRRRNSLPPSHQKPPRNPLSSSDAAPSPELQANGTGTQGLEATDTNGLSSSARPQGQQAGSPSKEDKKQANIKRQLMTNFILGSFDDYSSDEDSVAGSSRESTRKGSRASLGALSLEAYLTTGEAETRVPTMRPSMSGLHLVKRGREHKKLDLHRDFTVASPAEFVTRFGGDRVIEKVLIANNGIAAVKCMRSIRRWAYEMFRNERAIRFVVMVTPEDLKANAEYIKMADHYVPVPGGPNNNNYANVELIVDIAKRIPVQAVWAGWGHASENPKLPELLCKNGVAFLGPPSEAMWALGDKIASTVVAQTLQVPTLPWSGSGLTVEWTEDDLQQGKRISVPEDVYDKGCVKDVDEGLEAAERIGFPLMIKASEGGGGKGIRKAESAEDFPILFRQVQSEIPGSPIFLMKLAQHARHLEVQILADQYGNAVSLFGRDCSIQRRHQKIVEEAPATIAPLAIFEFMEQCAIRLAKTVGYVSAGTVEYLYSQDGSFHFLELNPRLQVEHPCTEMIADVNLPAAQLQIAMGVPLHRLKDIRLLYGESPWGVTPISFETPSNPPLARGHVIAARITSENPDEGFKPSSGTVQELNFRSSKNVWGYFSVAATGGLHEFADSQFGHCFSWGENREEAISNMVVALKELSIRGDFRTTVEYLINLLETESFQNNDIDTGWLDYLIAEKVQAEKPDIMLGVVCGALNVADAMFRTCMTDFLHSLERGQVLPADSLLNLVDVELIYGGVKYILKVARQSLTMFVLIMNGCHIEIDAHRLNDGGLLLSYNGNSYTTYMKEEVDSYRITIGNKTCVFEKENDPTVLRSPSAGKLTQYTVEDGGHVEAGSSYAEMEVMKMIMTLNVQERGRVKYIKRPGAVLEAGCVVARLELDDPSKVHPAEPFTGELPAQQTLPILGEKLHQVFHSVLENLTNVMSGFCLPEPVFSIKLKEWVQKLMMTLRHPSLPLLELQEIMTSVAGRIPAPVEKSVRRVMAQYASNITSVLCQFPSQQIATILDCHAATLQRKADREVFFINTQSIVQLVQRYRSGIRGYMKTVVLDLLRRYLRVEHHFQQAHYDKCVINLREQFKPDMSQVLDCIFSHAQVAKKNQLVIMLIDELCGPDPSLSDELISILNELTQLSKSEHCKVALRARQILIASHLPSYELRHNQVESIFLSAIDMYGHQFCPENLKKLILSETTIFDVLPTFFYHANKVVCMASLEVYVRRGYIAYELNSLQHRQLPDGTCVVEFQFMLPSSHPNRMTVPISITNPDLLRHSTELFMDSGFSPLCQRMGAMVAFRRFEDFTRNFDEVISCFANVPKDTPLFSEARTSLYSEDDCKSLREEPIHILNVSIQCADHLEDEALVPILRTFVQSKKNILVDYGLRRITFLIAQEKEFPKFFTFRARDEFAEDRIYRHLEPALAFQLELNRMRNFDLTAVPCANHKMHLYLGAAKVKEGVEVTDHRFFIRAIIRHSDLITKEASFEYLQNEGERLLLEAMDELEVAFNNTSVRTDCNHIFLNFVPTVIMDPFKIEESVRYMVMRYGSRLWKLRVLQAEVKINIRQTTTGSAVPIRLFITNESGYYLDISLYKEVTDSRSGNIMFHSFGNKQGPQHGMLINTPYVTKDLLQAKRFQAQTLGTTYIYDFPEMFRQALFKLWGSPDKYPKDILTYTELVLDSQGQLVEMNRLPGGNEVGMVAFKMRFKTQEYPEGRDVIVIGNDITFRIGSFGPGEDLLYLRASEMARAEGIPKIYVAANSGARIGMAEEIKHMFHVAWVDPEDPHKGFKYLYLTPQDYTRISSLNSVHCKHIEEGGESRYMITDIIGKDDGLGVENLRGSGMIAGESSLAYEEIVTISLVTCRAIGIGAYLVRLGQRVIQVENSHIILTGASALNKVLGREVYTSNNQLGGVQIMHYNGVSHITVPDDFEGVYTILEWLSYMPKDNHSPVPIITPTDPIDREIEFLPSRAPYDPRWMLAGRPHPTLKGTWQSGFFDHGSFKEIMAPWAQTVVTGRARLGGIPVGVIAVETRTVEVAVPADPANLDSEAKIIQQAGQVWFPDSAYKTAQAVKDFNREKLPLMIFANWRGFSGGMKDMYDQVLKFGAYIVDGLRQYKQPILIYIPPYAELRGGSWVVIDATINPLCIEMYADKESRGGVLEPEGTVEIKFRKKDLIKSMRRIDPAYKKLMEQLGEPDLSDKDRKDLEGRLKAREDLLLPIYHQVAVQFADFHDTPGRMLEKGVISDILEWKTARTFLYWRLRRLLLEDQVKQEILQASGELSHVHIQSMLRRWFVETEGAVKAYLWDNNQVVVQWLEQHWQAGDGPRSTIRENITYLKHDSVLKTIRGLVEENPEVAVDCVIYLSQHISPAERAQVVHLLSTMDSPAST
Description: The detailed procedure is as follows. […] 10 μL ADP glo reagent was added. […] 20 μL kinase detection reagent was added.

[1] = read-out: MIC, C. albicans ATCC 90028, Table 3b (additional results), 3 replicates, MIC recorded at 48 h
[2] = read-out: MIC, C. parapsilosis ATCC 22019, Table 3b (additional results), 3 replicates, MIC recorded at 48 h
[3] = read-out: MIC, C. krusei ATCC 6258, Table 3b (additional results), 3 replicates, MIC recorded at 48 h
[4] = Table 3a, ATCC 90028, 3 replicates, MIC recorded at 48 h, read-out: MIC, C. albicans ATCC 90028
[5] = Table 3b (additional results), ATCC 90028, 3 replicates, MIC recorded at 48 h, read-out: MIC, C. albicans ATCC 90028
[6] = Table 3a, ATCC 22019, 3 replicates, MIC recorded at 48 h, read-out: MIC, C. parapsilosis ATCC 22019
[7] = Table 3b (additional results), ATCC 22019, 3 replicates, MIC recorded at 48 h, read-out: MIC, C. parapsilosis ATCC 22019
[8] = Table 3a, ATCC 6258, 3 replicates, MIC recorded at 48 h, read-out: MIC, C. krusei ATCC 6258
[9] = Table 3b (additional results), ATCC 6258, 3 replicates, MIC recorded at 48 h, read-out: MIC, C. krusei ATCC 6258

COc1ccc(F)cc1[C@H](Cn1c(=O)n(C(C)(C)C(=O)NC(C)C)c(=O)c2c(C)c(-n3nccn3)sc21)O[C@H]1CC[C@H](C#N)CC1 [Compound I-159]
MIC (C. albicans; read-out: MIC, C. albicans ATCC 90028, Table 3a, 3 replicates, MIC recorded at 48 h): 0.25 to 1 µg/mL (≈ 0.384 to 1.53 µM)
MIC (C. albicans; [1]): 0.25 to 1 µg/mL (≈ 0.384 to 1.53 µM)
MIC (C. parapsilosis; read-out: MIC, C. parapsilosis ATCC 22019, Table 3a, 3 replicates, MIC recorded at 48 h): 0.25 to 1 µg/mL (≈ 0.384 to 1.53 µM)
MIC (C. parapsilosis; [2]): 0.25 to 1 µg/mL (≈ 0.384 to 1.53 µM)
MIC (C. krusei; read-out: MIC, C. krusei ATCC 6258, Table 3a, 3 replicates, MIC recorded at 48 h): 0.25 to 1 µg/mL (≈ 0.384 to 1.53 µM)
MIC (C. krusei; [3]): 0.06 to 0.249 µg/mL (≈ 0.0921 to 0.382 µM)
IC50 (fungal (fACC2); Table 2a): 1 to 5 nM
IC50 (fungal (fACC2); Table 2b, additional results): 1 to 5 nM
IC50 (human (hACC2); Table 2a): 1 to 5 nM
IC50 (human (hACC2); Table 2b, additional results): 1 to 5 nM

COc1ccc(F)cc1[C@H](Cn1c(=O)n(C(C)(C)C(=O)NC(C)(C)C)c(=O)c2c(C)c(-n3nccn3)sc21)OCCCO [Compound I-160]
MIC (C. albicans; [4]): 2.1 to 4 µg/mL (≈ 3.41 to 6.49 µM)
MIC (C. albicans; [5]): 2.01 to 4 µg/mL (≈ 3.26 to 6.49 µM)
MIC (C. parapsilosis; [6]): 1.1 to 2 µg/mL (≈ 1.78 to 3.24 µM)
MIC (C. parapsilosis; [7]): 2.01 to 4 µg/mL (≈ 3.26 to 6.49 µM)
MIC (C. krusei; [8]): 0.25 to 1 µg/mL (≈ 0.405 to 1.62 µM)
MIC (C. krusei; [9]): 1.01 to 2 µg/mL (≈ 1.64 to 3.24 µM)
IC50 (fungal (fACC2); Table 2a): 1 to 5 nM
IC50 (fungal (fACC2); Table 2b, additional results): 1 to 5 nM
IC50 (human (hACC2); Table 2a): 5 to 10 nM
IC50 (human (hACC2); Table 2b, additional results): 5 to 10 nM

COc1ccc(F)cc1[C@H](Cn1c(=O)n(C(C)(C)C(=O)NO)c(=O)c2c(C)c(-n3nccn3)sc21)OCCCO [Compound I-161]
MIC (C. albicans; [4]): 2.1 to 4 µg/mL (≈ 3.64 to 6.94 µM)
MIC (C. albicans; [5]): 2.01 to 4 µg/mL (≈ 3.49 to 6.94 µM)
MIC (C. parapsilosis; [6]): 2.1 to 4 µg/mL (≈ 3.64 to 6.94 µM)
MIC (C. parapsilosis; [7]): 2.01 to 4 µg/mL (≈ 3.49 to 6.94 µM)
MIC (C. krusei; [8]): 2.1 to 4 µg/mL (≈ 3.64 to 6.94 µM)
MIC (C. krusei; [9]): 1.01 to 2 µg/mL (≈ 1.75 to 3.47 µM)
IC50 (fungal (fACC2); Table 2a): 0.4 to 1 nM
IC50 (fungal (fACC2); Table 2b, additional results): 0.3 to 1 nM
IC50 (human (hACC2); Table 2a): 1 to 5 nM
IC50 (human (hACC2); Table 2b, additional results): 1 to 5 nM

COc1ccc(F)cc1[C@H](Cn1c(=O)n(C(C)(C)C(=O)N(O)C(C)C)c(=O)c2c(C)c(-n3nccn3)sc21)OCCCO [Compound I-163]
MIC (C. albicans; [4]): 0.25 to 1 µg/mL (≈ 0.404 to 1.62 µM)
MIC (C. albicans; [5]): 1.01 to 2 µg/mL (≈ 1.63 to 3.23 µM)
MIC (C. parapsilosis; [6]): 0.25 to 1 µg/mL (≈ 0.404 to 1.62 µM)
MIC (C. parapsilosis; [7]): 2.01 to 4 µg/mL (≈ 3.25 to 6.47 µM)
MIC (C. krusei; [8]): 0.25 to 1 µg/mL (≈ 0.404 to 1.62 µM)
MIC (C. krusei; [9]): 0.25 to 1 µg/mL (≈ 0.404 to 1.62 µM)
IC50 (fungal (fACC2); Table 2a): 1 to 5 nM
IC50 (fungal (fACC2); Table 2b, additional results): 1 to 5 nM
IC50 (human (hACC2); Table 2a): 5 to 10 nM
IC50 (human (hACC2); Table 2b, additional results): 5 to 10 nM

COc1ccc(F)cc1[C@H](Cn1c(=O)n([C@H](C)C(=O)N(C)C(C)C)c(=O)c2c(C)c(-n3nccn3)sc21)OC1CCC(=O)CC1 [Compound I-164]
MIC (C. albicans; [4]): 0.25 to 1 µg/mL (≈ 0.39 to 1.56 µM)
MIC (C. albicans; [5]): 0.25 to 1 µg/mL (≈ 0.39 to 1.56 µM)
MIC (C. parapsilosis; [6]): 0.25 to 1 µg/mL (≈ 0.39 to 1.56 µM)
MIC (C. parapsilosis; [7]): 1.01 to 2 µg/mL (≈ 1.58 to 3.12 µM)
MIC (C. krusei; [8]): 0.25 to 1 µg/mL (≈ 0.39 to 1.56 µM)
MIC (C. krusei; [9]): 0.25 to 1 µg/mL (≈ 0.39 to 1.56 µM)
IC50 (fungal (fACC2); Table 2a): 1 to 5 nM
IC50 (fungal (fACC2); Table 2b, additional results): 1 to 5 nM
IC50 (human (hACC2); Table 2a): 5 to 10 nM
IC50 (human (hACC2); Table 2b, additional results): 5 to 10 nM

COc1ccc(F)cc1[C@H](Cn1c(=O)n([C@@H](C)C(=O)N(C)C(C)C)c(=O)c2c(C)c(-n3nccn3)sc21)OC1CCC(=O)CC1 [Compound I-165]
MIC (C. albicans; [4]): 0.25 to 1 µg/mL (≈ 0.39 to 1.56 µM)
MIC (C. albicans; [5]): 0.25 to 1 µg/mL (≈ 0.39 to 1.56 µM)
MIC (C. parapsilosis; [6]): 1.1 to 2 µg/mL (≈ 1.72 to 3.12 µM)
MIC (C. parapsilosis; [7]): 1.01 to 2 µg/mL (≈ 1.58 to 3.12 µM)
MIC (C. krusei; [8]): 0.25 to 1 µg/mL (≈ 0.39 to 1.56 µM)
MIC (C. krusei; [9]): 0.25 to 1 µg/mL (≈ 0.39 to 1.56 µM)
IC50 (fungal (fACC2); Table 2a): 1 to 5 nM
IC50 (fungal (fACC2); Table 2b, additional results): 1 to 5 nM
IC50 (human (hACC2); Table 2a): 5 to 10 nM
IC50 (human (hACC2); Table 2b, additional results): 5 to 10 nM

COc1ccc(F)cc1[C@H](Cn1c(=O)n([C@H](C)C(=O)N(C)C(C)C)c(=O)c2c(C)c(-n3nccn3)sc21)O[C@H]1CC[C@@H](O)CC1 [Compound I-166]
MIC (C. albicans; [4]): 0.25 to 1 µg/mL (≈ 0.389 to 1.56 µM)
MIC (C. albicans; [5]): 0.25 to 1 µg/mL (≈ 0.389 to 1.56 µM)
MIC (C. parapsilosis; [6]): 0.25 to 1 µg/mL (≈ 0.389 to 1.56 µM)
MIC (C. parapsilosis; [7]): 1.01 to 2 µg/mL (≈ 1.57 to 3.11 µM)
MIC (C. krusei; [8]): 0.25 to 1 µg/mL (≈ 0.389 to 1.56 µM)
MIC (C. krusei; [9]): 1.01 to 2 µg/mL (≈ 1.57 to 3.11 µM)
IC50 (fungal (fACC2); Table 2a): 0.4 to 1 nM
IC50 (fungal (fACC2); Table 2b, additional results): 0.3 to 1 nM
IC50 (human (hACC2); Table 2a): 1 to 5 nM
IC50 (human (hACC2); Table 2b, additional results): 1 to 5 nM

COc1ccc(F)cc1[C@H](Cn1c(=O)n([C@@H](C)C(=O)N(C)C(C)C)c(=O)c2c(C)c(-n3nccn3)sc21)O[C@H]1CC[C@@H](O)CC1 [Compound I-167]
MIC (C. albicans; [4]): 1.1 to 2 µg/mL (≈ 1.71 to 3.11 µM)
MIC (C. albicans; [5]): 0.25 to 1 µg/mL (≈ 0.389 to 1.56 µM)
MIC (C. parapsilosis; [6]): 2.1 to 4 µg/mL (≈ 3.27 to 6.22 µM)
MIC (C. parapsilosis; [7]): 1.01 to 2 µg/mL (≈ 1.57 to 3.11 µM)
MIC (C. krusei; [8]): 0.25 to 1 µg/mL (≈ 0.389 to 1.56 µM)
MIC (C. krusei; [9]): 1.01 to 2 µg/mL (≈ 1.57 to 3.11 µM)
IC50 (fungal (fACC2); Table 2a): 0.4 to 1 nM
IC50 (fungal (fACC2); Table 2b, additional results): 0.3 to 1 nM
IC50 (human (hACC2); Table 2a): 5 to 10 nM
IC50 (human (hACC2); Table 2b, additional results): 5 to 10 nM

COc1ccc(F)cc1[C@H](Cn1c(=O)n(C(C)(C)C(=O)NC(C)C)c(=O)c2c(C)c(-n3nccn3)sc21)OCCC(C)(C)O [Compound I-168]
MIC (C. albicans; [1]): 0.25 to 1 µg/mL (≈ 0.396 to 1.59 µM)
MIC (C. parapsilosis; [2]): 0.25 to 1 µg/mL (≈ 0.396 to 1.59 µM)
MIC (C. krusei; [3]): 0.25 to 1 µg/mL (≈ 0.396 to 1.59 µM)
IC50 (fungal (fACC2); Table 2a): 1 to 5 nM
IC50 (fungal (fACC2); Table 2b, additional results): 1 to 5 nM
IC50 (human (hACC2); Table 2a): 5 to 10 nM
IC50 (human (hACC2); Table 2b, additional results): 5 to 10 nM

COc1ccc(F)cc1[C@H](Cn1c(=O)n([C@H](C)C(=O)N(C)C(C)C)c(=O)c2c(C)c(-n3nccn3)sc21)OCC(C)(C)O [Compound I-169]
MIC (C. albicans; [5]): 0.25 to 1 µg/mL (≈ 0.405 to 1.62 µM)
MIC (C. parapsilosis; [7]): 2.01 to 4 µg/mL (≈ 3.26 to 6.49 µM)
MIC (C. krusei; [9]): > 4.01 µg/mL
IC50 (fungal (fACC2); Table 2a): 1 to 5 nM
IC50 (fungal (fACC2); Table 2b, additional results): 1 to 5 nM
IC50 (human (hACC2); Table 2a): > 40 nM
IC50 (human (hACC2); Table 2b, additional results): > 40 nM
